Assay results taken from patent US20200281897A1, “INDAZOLE DERIVATIVES FOR CANCER TREATMENT” (Servicio Andaluz de Salud, priority 2016, published 2020).

How the values were obtained:
[1] = system: U266, U266-LR7, RPMI and RPMI-LR5; experiment: Synergy of WIN-55 with anti-myeloma agents, MTT and combination index; format: cell-based, human
Experimental: The evaluation of the synergy of the indazole compound WIN-55 with other anti-myeloma agents, such as dexamethasone and melphalan, was done by evaluating cell viability by means of an MTT assay.
Unless otherwise indicated, an experiment representative of at least three independent experiments is shown. For all the statistical analyses, the data was analyzed by means of Student's T-test with the SPSS software with a statistical significance P≤0.05. The means and standard deviations were also determined. The synergy was calculated using R as described in the Calcusyn software; a combination index (CI)<1 indicates synergy, and >1 indicates antagonism.

myeloma cell lines = experiment: MTT cell viability assay, average over all myeloma cell lines; format: cell-based, human; conditions: average over the six myeloma cell lines, MTT, 18 hours; read-out: IC50 average
Experimental: (§1) In vitro studies were carried out using six different human MM cell lines, U266, RPMI8226, MM1S, MM1R, U266-LR7, and RPMI-LR5. For ex vivo assays, human primary cells from healthy donors and MM patients were used (Table 1). Human MM cell lines U266, RPMI8226, and MM1.S were acquired from ATCC and lines U266-LR7, RPMI-LR5, and MM1.R were kindly provided by Dr. Enrique Ocio (Hospital Universitario de Salamanca, Spain). The primary cells were obtained from bone marrow (BM) aspirates or peripheral blood (PB) samples, and the peripheral blood mononuclear cells (PBMCs) were isolated by Ficoll-Hypaque centrifugation and washed twice in phosphate buffered saline (PBS) containing 1% BSA. Hematopoietic stem cells and B and T lymphocytes were isolated from healthy PB donors by positive immunomagnetic separation using human MACS CD34+, CD19+, and CD3+ microbeads, respectively. MM plasma cells were obtained from the bone marrow (BM) of patients with an infiltration of cells of more than 30% (Table 1). The MM plasma cells were identified using CD138+, and were then distinguished from the other cell populations by flow cytometry using a suitable combination of antibodies: anti-human CD64-FITC, CD34-PE, CD56-APC, CD38-APC-H7, and CD45-Pacific Blue antibodies (BD Biosciences, San Jose, Calif.). All the cell lines were cultured in RPMI-1640 supplemented with 10% fetal bovine serum (FBS) and 1% penicillin/streptomycin, as recommended by the supplier. For human primary cells, the concentration of FBS was up to 20%.
(§2) The MM cell lines and primary cells were exposed to different doses of indazole compounds, and viability was evaluated at 18, 48, and 72 hours. Pretreatments with the ceramide synthesis inhibitor (FB1), pan-caspase (ZVAD-FMK), and CB antagonists (PGN-8, PGN-37, and PGN-70) were performed for 30 minutes, and then the cells were incubated with indazole compound WIN-55 up to 18 hours. Cell viability was determined using the MTT assay Cell Counting Kit-8 (Dojindo, Kumamoto, Japan) according to the manufacturer's instructions.

RPMI = experiment: Cell viability by flow cytometry (annexin V/7-AAD), RPMI; format: cell-based, human; conditions: 18 hours
Experimental: The cell viability of the MM cell lines and primary cells from healthy PB donors was also evaluated by flow cytometry using 7-AAD/Annexin V. Patient bone marrow (BM) cells were analyzed using 7-AAD with a combination of monoclonal antibodies against myeloma-associated antigens (anti-CD56-APC, anti-CD45-Pacific Blue, and anti-CD38-APC-H7 [BD Biosciences]) and antibodies for distinguishing the granulomonocytic population (anti-CD64-FITC) and lymphocytic population (anti-CD45-Pacific Blue). The cells were acquired by means of FACSCanto II flow cytometer (BD Biosciences) and analyzed using Infinicyt™ Software (Cytognos, Spain).

MM1R = experiment: MTT cell viability assay, myeloma cell line MM1R; format: cell-based, human; conditions: MM1R, MTT, 18 hours, doses 0-50 μM; read-out: IC50, cell viability
Experimental: as §1, §2

NB-4 = experiment: WST-1 cell viability assay, NB-4; format: cell-based, human; conditions: NB-4, 18 hours
Experimental: (§3) U937, NB-4, KG-1, and MOLM-13 (DMSZ, Braunschweig, Germany) were cultured in complete RPMI 1640 medium (with 2 mM of L-glutamine, 100 mg of penicillin, 100 μg/ml of streptomycin, and with 10% FBS), supplemented with 10 mM HEPES, 1×NaPuvuvato, and 1× non-essential amino acids.
(§4) The cell lines and primary cells were cultured in 96-well plates (5×10e5 cells per well) with the addition of the indicated concentrations of WIN 55,212-2 or PGN cannabinoids in DMSO or with the solvent only in triplicate at 18, 48, and 72 hours. Caspase inhibitor Z-VAD (OMe)-FMK or the CB2 receptor antagonist PGN-8, -37, and -70, together with the cannabinoid WIN-55,212-2, were also added. Cell viability was determined by means of the WST-1 assay [2-(4-iodophenyl)-3-(4-nitrophenyl)-5-(2,4-disulfophenyl)-2H-tetrazolium] according to the manufacturer's instructions (Dojindo Molecular Technologies). Optical densities were measured at 450 nm using a Multiskan™ Go Microplate plate reader (Thermo Fisher Scientific, Waltham, Mass., USA).
(§5) Now it will be analyzed whether the exposure to cannabinoids had any effect on the viability of the tumor cells in vitro. […]

U266 cells = experiment: MM xenograft in NGS mice; format: in vivo
Experimental: The “NOD/scid/IL-2R gammae null” (NGS) mice were acquired from Charles River (France). The tumor xenografts were induced by the subcutaneous injection of 5×10^6 U266 cells mixed with 100 μl of Matrigel (BD Biosciences) in 8-week old mice. When the tumors became palpable (>0.5 cm), the mice were randomly assigned in the following groups (10 mice per group), which received i.p.: 1) 5 mg/kg WIN-55 every 24 hours, 2) 5 mg/kg WIN-55 every 48 hours, and 3) a vehicle. Two groups were left tumor-free and served as a negative control, receiving treatment every 24 or 48 hours, respectively. The tumor growth was evaluated daily by measuring the two bisecting diameters of the tumor with a digital Vernier gauge or caliper. The volume was calculated using the following formula: volume=length×(width) e2×0.4 mm^3. The animals were sacrificed when the length or width of the tumor reached 2 cm.

MOLM-13 = experiment: WST-1 cell viability assay, MOLM-13; format: cell-based, human; conditions: MOLM-13, 18 hours
Experimental: as §3, §4, §5

## CS(=O)(=O)O.Cc1c(C(=O)c2cccc3ccccc23)c2cccc3c2n1[C@H](CN1CCOCC1)CO3 [WIN-55, (R)-(+)-[2,3-dihydro-5-methyl-3-(4-morpholinomethyl)-pyrrolo[1,2,3]-1,4-benzoxazin-6-yl]-1-naphthalenylmethanone mesylate]
[1]; WIN-55 20 μM (U266, U266-LR7, RPMI-LR5) or 10 μM (RPMI) plus DEX
  combination effect (combination index) with dexamethasone: synergistic effect
[1]; WIN-55 20 μM (U266, U266-LR7, RPMI-LR5) or 10 μM (RPMI) plus MPH
  combination effect (combination index) with melphalan: synergistic effect
Myeloma cell lines
  IC50: 14.6 µM
RPMI
  IC50: 12.7 µM
MM1R
  IC50: 12.1 µM
NB-4
  % viable cells at 50 μM: 49.1%
  IC50: 25.1 µM
U266 cells; 5 mg/kg i.p. every 24 or 48 hours, NGS mice, U266 xenograft
  tumor growth (tumor volume): considerably inhibits tumor growth
U266 cells; 5 mg/kg i.p. every 24 hours
  first day on which tumor volume differences were statistically significant: 13 days
U266 cells; 5 mg/kg i.p. every 48 hours
  first day on which tumor volume differences were statistically significant: 16 days
MOLM-13
  % viable cells at 50 μM: 56.6%
  IC50: 25.9 µM
